# Measurements taken from patent publication US7122621B2, “Anti-cellular proliferative disorder polypeptide” (Academia Sinica, priority 2003, dated 2006).
# Like-named read-outs stand apart in the source and are kept apart here. No end group written: not given here.
# How the values were obtained:
# tissue cells (3T3 cells) = assay: cells
# Description: (§1) To evaluate the cell lysis activity of CHM1, a cytotoxcity assay was conducted according to the method described in Chen H. et al., Biochim. Biophys. Acta 1336:171–179, 1997 and Wang W. et al., J. Biol. Chem. 273:27438–27448, 1998.
# (§2) Anchorage-dependent cells such as tissue cells (3T3 cells) or stomach carcinoma (AGS) cells were seeded at 1×10^4 cells/ml into a 25-cm^2 flask containing D-MEM medium supplemented with 10% FBS, 100 unit/ml penicillin G, and 100 μg/ml streptomycin. Cells were grown to about 80% confluence before being trypsinized. The trypsinized cells were resuspended in a D-MEM medium containing 0.5% FBS.
# (§3) Each of the above-prepared cell suspensions was adjusted so that it contained 1×10^5 cells/ml before being transferred into 9 wells of a 96-well plate (90 μl/well). The suspension in each well was mixed with 10 ul of a culture medium containing CHM1 freshly prepared from a […] stock solution so that the final concentrations in the 9 wells were 0, 1, 5, 10, 15, 20, 30, 50, and 100 μM, respectively. Triplicates for each well were set up. After incubating for 24 hours, a microtetrazolium (MTT)-based colorimetric assay was conducted. It is known that MTT can be metabolized by mitochondrial dehydrogenases in metabolically active cells to form a formazan salt, which has a strong absorption at 570 nm. To conduct the assay, 20 μl of a solution containing 5 mg/ml MTT (Boehringer Mannheim) was added to each of the wells mentioned above and a well containing 100 μl of PBS. The latter was used as a blank control. After incubating for 4 hours, 100 μl of a solution containing 10% SDS and […] HCl was added to each well. The plate was then incubated at 37° C. overnight. The absorbance at 570 nm of the mixture in each well was measured using a Bio-Rad model 450 microtiter plate reader. An average cell survival rate of each triplicate was determined based on the corresponding ΔA570nm relative to that of the well containing 0 μM CHM1. The survival rates thus obtained were plotted against corresponding CHM1 concentrations to form a cell survival curve and derive the IC50. Using the same procedure, also determined were the IC50s of other lytic polypeptides, such as cecropin B (CB), cecropin B1 (CB1), Melittin, and Magainin II, and cancer chemotherapeutic agents, such as doxorubicin (DOX), vincristine (VCR), methotrexate (MTX), 5-fluorouracil (5-Fu), cytarabine (Ara-C), 6-mercaptopurine (6-MP). At least three independent experiments were conducted for each of the polypeptides and agents.
# [1] = test system: stomach carcinoma (AGS) cells; assay: cells
# Description: as §1, §2, §3
# CCRF-CEM = assay: cells
# Description: as §1
# (§4) Anchorage-independent normal cells such as red blood cells and lymphoblast RPMI 7666 cells, and leukemia cell lines such as CCRF-CEM, HL-60, and Jurkat, K-562 cells were respectively maintained in RMPI-1640 culture media containing 10% FBS, 100 unit/ml penicillin G, and 100 μg/ml streptomycin. Cells of each type were seeded at 1×10^5/ml into a 25 cm^2 flask (Falcon) and cultured at 37° C. in the presence of 5% CO2 for two days. The cells were then centrifuged at 1000 rpm for 5 min. The resultant pellet was washed twice with the just-mentioned culture medium, resuspended in an RMPI-1640 medium containing 0.5% FBS, and cultured overnight.
# as §3
# [2] = test system: lymphoblast RPMI 7666 cells; assay: cells
# Description: as §1, §4, §3
# K-562 = assay: cells
# Description: as §1, §4, §3
# HL-60 = assay: cells
# Description: as §1, §4, §3
# Jurkat = assay: cells
# Description: as §1, §4, §3
# CCRF-SB = assay: MTT-based cytotoxicity assay, CCRF-SB cancer cells; format: cell-based; conditions: Homo sapiens, Table 2, 24 hours incubation
# Description: as §1, §3
# red blood cells (RBCs) = assay: Hemolysis of red blood cells; format: cell-based; conditions: 200 μM
# Description: as §4
# Effects of CHM1, melittin, CB, CB1 and doxorubicin on red blood cells (RBCs) were also examined. […] In fact, about 15% of RBCs lysed after being treated with CHM1 (200 μM). In contrast, about 100%, 57%, 55%, and 20% of RBCs lysed after being treated by melittin, CB, CB1, and doxorubicin, respectively, at the same concentration.
# [3] = read-out: IC50, Normal cells Tissue cells (3T3), 24 hours incubation, MTT
# [4] = read-out: IC50, Stomach Carcinoma AGS, 24 hours incubation, MTT
# [5] = read-out: IC50, Leukemia cells CCRF-CEM, 24 hours incubation, MTT
# [6] = read-out: IC50, Normal cells Lymphoblast (RPMI7666), Table 1, 24 hours incubation, MTT
# [7] = read-out: IC50, Leukemia cells K-562, 24 hours incubation, MTT
# [8] = read-out: IC50, Leukemia cells HL-60, Table 1, 24 hours incubation, MTT
# [9] = read-out: IC50, Leukemia cells Jurkat, 24 hours incubation, MTT
# [10] = 24 h, read-out: IC50, Lymphoblasts RPMI 7666
# [11] = Homo sapiens, HL-60, 24 h, read-out: IC50, Cancer Cells HL-60
compound,measurement,setting,value
cecropin B1 [CB1],IC50,tissue cells (3T3 cells); [3],> 50 µM
same,IC50,[1]; [4],7.1 ± 1.3 µM
same,IC50,CCRF-CEM; [5],4.7 ± 0.2 µM
same,IC50,[2]; [6],> 200 µM
same,IC50,K-562; [7],15.6 ± 1.8 µM
same,IC50,HL-60; [8],8.1 ± 0.9 µM
same,IC50,Jurkat; [9],4 ± 0.4 µM
"Sc1ncnc2nc[nH]c12 [6-MP, 6-mercaptopurine]",IC50,CCRF-SB,0.44 ± 0.01 µM
same,IC50,[2]; [10],1.24 ± 0.3 µM
same,IC50,HL-60; [11],0.43 ± 0.05 µM
"Nc1ccn([C@@H]2O[C@H](CO)[C@@H](O)[C@@H]2O)c(=O)n1 [Ara-C, cytarabine]",IC50,CCRF-SB,0.1 ± 0.01 µM
same,IC50,[2]; [10],0.3 ± 0.1 µM
same,IC50,HL-60; [11],0.08 ± 0.02 µM
"CC[C@]1(O)C[C@H]2CN(CCc3c([nH]c4ccccc34)[C@@](C(=O)OC)(c3cc4c(cc3OC)N(C=O)[C@H]3[C@@](O)(C(=O)OC)[C@H](OC(C)=O)[C@]5(CC)C=CCN6CC[C@]43[C@@H]65)C2)C1 [VCR, vincristine]",IC50,CCRF-SB,0.015 ± 0.01 µM
same,IC50,[2]; [10],0.021 µM
same,IC50,HL-60; [11],0.034 ± 0.01 µM
CC[C@H](C)[C@H](NC(=O)CN)C(=O)NCC(=O)N[C@@H](C)C(=O)N[C@H](C(=O)N[C@@H](CC(C)C)C(=O)N[C@@H](CCCCN)C(=O)N[C@H](C(=O)N[C@@H](CC(C)C)C(=O)N[C@H](C(=O)N[C@H](C(=O)NCC(=O)N[C@@H](CC(C)C)C(=O)N1CCC[C@H]1C(=O)N[C@@H](C)C(=O)N[C@@H](CC(C)C)C(=O)N[C@H](C(=O)N[C@@H](CO)C(=O)N[C@@H](Cc1c[nH]c2ccccc12)C(=O)N[C@H](C(=O)N[C@@H](CCCCN)C(=O)N[C@@H](CCCNC(=N)N)C(=O)N[C@@H](CCCCN)C(=O)N[C@@H](CCCNC(=N)N)C(=O)N[C@@H](CCC(N)=O)C(=O)N[C@@H](CCC(N)=O)C(N)=O)[C@@H](C)CC)[C@@H](C)CC)[C@@H](C)O)[C@@H](C)O)C(C)C)C(C)C [Melittin],IC50,tissue cells (3T3 cells); [3],6 ± 0.03 µM
same,IC50,[1]; [4],0.6 ± 0.02 µM
same,RBCs lysed,red blood cells (RBCs),about 100%
same,IC50,CCRF-CEM; [5],0.5 ± 0.02 µM
same,IC50,K-562; [7],3.2 ± 0.3 µM
same,IC50,HL-60; [8],0.8 ± 0.02 µM
same,IC50,Jurkat; [9],2.5 ± 0.1 µM
"O=c1[nH]cc(F)c(=O)[nH]1 [5-FU, 5-fluorouracil]",IC50,CCRF-SB,123 ± 30.7 µM
same,IC50,[2]; [10],1.15 ± 0.4 µM
same,IC50,HL-60; [11],7.6 ± 10.5 µM
"KWKVFKKIEKMGRNIRNGIVKAGPAIAVLGEAKAL-NH2 [CB, cecropin B]",IC50,tissue cells (3T3 cells); 24 h,> 50 µM
same,IC50,[1]; 24 h,> 50 µM
same,IC50,CCRF-CEM; 24 h,11.7 ± 1.3 µM
same,IC50,[2]; [6],> 200 µM
same,IC50,K-562; 24 h,> 50 µM
same,IC50,HL-60; 24 h,18.5 ± 1.7 µM
same,IC50,Jurkat; 24 h,31.5 ± 3 µM
"COc1cccc2c1C(=O)c1c(O)c3c(c(O)c1C2=O)C[C@@](O)(C(=O)CO)C[C@@H]3O[C@H]1C[C@H](N)[C@H](O)[C@H](C)O1 [Doxorubicin, doxorubicin]",IC50,"tissue cells (3T3 cells); Mus musculus, NIH3T3, 24 h, read-out: IC50, Normal cells Tissue cells (3T3)",2 ± 0.7 µM
same,IC50,"[1]; Homo sapiens, AGS, 24 h, read-out: IC50, Stomach Carcinoma AGS",4.1 ± 0.4 µM
same,IC50,CCRF-SB,0.46 ± 0.07 µM
same,RBCs lysed,red blood cells (RBCs),~20%
same,IC50,"CCRF-CEM; Homo sapiens, CCRF-CEM, 24 h, read-out: IC50, Leukemia cells CCRF-CEM",0.4 ± 0.1 µM
same,IC50,[2]; [10],1.86 ± 0.1 µM
same,IC50,"[2]; 24 h, read-out: IC50, Normal cells Lymphoblast (RPMI7666)",1.9 ± 0.1 µM
same,IC50,"K-562; Homo sapiens, K562, 24 h, read-out: IC50, Leukemia cells K-562",> 10 µM
same,IC50,HL-60; [11],0.19 ± 0.01 µM
same,IC50,"HL-60; Homo sapiens, HL-60, 24 h, read-out: IC50, Leukemia cells HL-60",0.19 ± 0.01 µM
same,IC50,"Jurkat; Homo sapiens, Jurkat, 24 h, read-out: IC50, Leukemia cells Jurkat",0.4 ± 0.1 µM
GIGKFLHSAKKFGKAFVGEIMNS [Magainin II],IC50,tissue cells (3T3 cells); 24 h,> 50 µM
same,IC50,[1]; 24 h,28.7 ± 5 µM
same,IC50,CCRF-CEM; 24 h,32.9 ± 0.9 µM
same,IC50,K-562; 24 h,> 50 µM
same,IC50,HL-60; 24 h,38.3 ± 3.2 µM
same,IC50,Jurkat; 24 h,44 ± 2.4 µM
"CN(Cc1cnc2nc(N)nc(N)c2n1)c1ccc(C(=O)N[C@@H](CCC(=O)O)C(=O)O)cc1 [MTX, methotrexate]",IC50,CCRF-SB,0.017 ± 0.01 µM
same,IC50,[2]; [10],0.132 ± 0.04 µM
same,IC50,HL-60; [11],0.018 ± 0.01 µM
KWKVFKKIEKKWKVFKKIEKAGPKWKVFKKIEK [CHM1],IC50,tissue cells (3T3 cells); 24 h,> 50 µM
same,effect on normal tissue cells (in words),tissue cells (3T3 cells); summary of Table 1,little effect
same,IC50,[1]; 24 h,5.6 ± 0.5 µM
same,IC50,CCRF-CEM; 24 h,4.4 ± 0.3 µM
same,IC50,[2]; [6],> 100 µM
same,effect on normal lymphoblasts (in words),[2]; summary of Table 1,little effect
same,IC50,K-562; 24 h,8.5 ± 0.6 µM
same,IC50,HL-60; 24 h,6.7 ± 1.1 µM
same,IC50,Jurkat; 24 h,10.1 ± 1.2 µM
